{"source": "patent US20080275136A1", "about": "“Use of Glycerol for Improving Cardiac Function” (priority 2005, published 2008)", "key": {"type 2 diabetic patients": {"test_system": "type 2 diabetic patients", "conditions": "cited from earlier work"}, "heart": {"test_system": "heart", "conditions": "cited from earlier work"}, "[1]": {"test_system": "isolated neonatal rat cardiomyocytes", "conditions": "cited from earlier work"}, "perfused rat heart [2]": {"test_system": "perfused rat heart", "experiment": "14CO2 production from [14C]-glycerol in perfused rat heart (mitochondrial energy production)", "conditions": "energy demand raised from 350 to 450 beats/min; whatever the circulating glycerol concentration (0.33 or 3.33 mM)", "experimental": "(§1) The investigations were carried out on a perfused rat heart model (LOPASCHUK and BARR., 1997, aforementioned, SENTEX et al, 2001, aforementioned, FOLCH et al., J Biol Chem, 226, 497-509, 1957). Male Wistar rats (280-330 g) were anaesthetised with sodium pentobarbital (60 mg per kg, i.p.) and heparin was intravenously injected (500 IU/kg). After 1 min, the hearts were excised and placed in a cold (4° C.) perfusion buffer awaiting contractions ceased. The heart was then immediately cannulated through the aorta and perfused according to the Langendorff method at a constant perfusion pressure of 80 cm of water (8 kPa). […]\n(§2) Before use, all solutions were filtered through a 0.8 μm filter (Millipore, Saint Quentin en Yvelines, France) to remove any particulate contaminants. […] The intra-ventricular pressure and the heart rate were recorded together with ECG. Coronary flow was measured by sequentially collecting the effluent. […]\nThe cardiac capacity to use glycerol as a metabolic substrate in energy production, according to glycerol availability was evaluated using ^14C-radiolabelled glycerol.\nThe direct measurement of mitochondrial energy production was made by quantitatively collecting ^14CO2 produced from the perfused hearts. […] The hyamine […] was collected every 10 minutes and the radioactivity evaluated."}, "perfused rat heart [3]": {"test_system": "perfused rat heart", "experiment": "Glycerol uptake in perfused rat heart (total radioactivity of the homogenate)", "experimental": "as §1, with “kPa). The perfusion fluid consisted of a modified Krebs-Henseleit bicarbonate buffer (mM concentrations: NaCl 118, NaHCO3 25, MgSO4 1.2, KH2PO4 1.2, KCl 4.7, glucose 5.5 and CaCl2 2.0).” for “kPa).”\nas §2\nAt the end of the perfusion, the heart was washed out from the remaining radiolabelled medium by 10 mL of Krebs-Henseleit solution injected through the canula. […] The radioactivity of the homogenate was evaluated.\nThe glycerol uptake was evaluated from the total radioactivity of the homogenate."}, "perfused rat heart [4]": {"test_system": "perfused rat heart", "experiment": "Incorporation of glycerol in glycerolipids (PL and NPL) in perfused rat heart", "conditions": "increase in rate", "experimental": "The experiments were performed using the perfusion conditions described in Example 1. At the end of the perfusion, the heart was washed out from the remaining radiolabelled medium by 10 mL of Krebs-Henseleit solution injected through the canula. The hearts were homogenized in 30 mL chloroform/methanol (2/1, v/v) according to FOLCH (1957, aforementioned). The radioactivity of the homogenate was evaluated. A 0.73% NaCl solution was added to the homogenate to cause phase separation. The radioactivity was determined in samples of the aqueous and organic fractions, and the phospholipids (PL) were separated from non-phosphorous lipids (NPL) on silica cartridges (Supelco, Sigma) and the radioactivity of each class was evaluated. The fate of intracellular glycerol was evaluated in these rat hearts by analysing the radioactivity incorporated into phospholipids (PL) and non-phosphorous lipids (NPL), which in the heart represent mainly the triacylglycerol pool."}, "perfused rat heart [5]": {"test_system": "perfused rat heart", "experiment": "Simultaneous oxidation of [3H]-palmitate and [14C]-glycerol in perfused rat heart", "conditions": "extracellular glycerol concentration increased; palmitate 0.4 mM", "experimental": "The influence of cardiac energy demand and circulating glycerol concentration on fatty acid metabolism was evaluated in the heart by following the intracellular palmitate fate with [^3H]-palmitate. The experiments were performed using the perfusion conditions described in Example 1, except that a perfusion solution supplemented with palmitate (0.4 mM) was used. To prepare palmitate-enriched solution, 43.5 g of albumin (fraction bovine, Sigma) was dissolved in 350 mL Krebs-Henselheit buffer. Palmitate was then slowly added to this albumin solution and mixed. The albumin-palmitate mixture was dialysed against Krebs-Henselheit solution at +4° C. (three time 12 h dialysis in 10 basal solution volume). For the final preparation of the palmitate-enriched fluid, 93.5 mL of concentrated solution were incorporated in 2 L of Krebs-Henselheit Radioactive solution was prepared in the same conditions with addition of [^3H]-palmitate (1 μCi/mL). The perfusion solution also contained [^14C]-glycerol to follow glycerol oxidation in the same heart. The oxidations of palmitate and glycerol were evaluated simultaneously using as tracers [^3H]-palmitate and [^14C]-GLYCEROL, respectively. At the end of the perfusion, the oxidized substrates were determined by measuring the radioactivity rejected by the heart in the perfusion medium as [^3H]2O and [^14C]O2, respectively."}, "[6]": {"conditions": "as a function of the extracellular glycerol concentration"}}, "note": "Where two headings read alike, the source gives them in different places."}
{"smiles": "CCOC(=O)[C@@]1(CCCCCCOc2ccc(Cl)cc2)CO1", "note": "[Etomoxir]", "values": [{"measurement": "insulin sensitivity", "setting": "type 2 diabetic patients", "result": "improve insulin sensitivity"}, {"measurement": "cardiac hypertrophy", "setting": "heart; chronic treatment", "result": "induced cardiac hypertrophy"}, {"measurement": "glucose oxidation", "setting": "heart; normal and diabetic heart", "result": "increase glucose oxidation"}]}
{"smiles": "COc1ccc(CN2CCNCC2)c(OC)c1OC", "note": "[Trimetazidine, reference compound]", "values": [{"measurement": "glycerol uptake", "setting": "[1]; Trimetazidine added", "result": "increased"}, {"measurement": "phospholipid synthesis", "setting": "[1]; Trimetazidine added", "result": "increased their synthesis only at high glycerol concentrations"}, {"measurement": "triacylglycerol synthesis", "setting": "[1]; Trimetazidine added", "result": "no significant effect"}, {"measurement": "cellular glycerol uptake", "setting": "heart; associated with increased phospholipid synthesis", "result": "significant increase"}, {"measurement": "β-oxidation", "setting": "heart", "result": "reduces β-oxidation"}, {"measurement": "phospholipid synthesis", "setting": "heart; in vitro and in vivo", "result": "increasing the phospholipid synthesis"}]}
{"smiles": "OCC(O)CO", "note": "[glycerol]", "values": [{"measurement": "mitochondrial production of 14CO2 from glycerol", "setting": "perfused rat heart [2]", "result": "significantly increased"}, {"measurement": "glycerol uptake", "setting": "perfused rat heart [3]; high glycerol concentration (3.33 mM), increased energetic demand 350 to 450 beats/min", "result": "significant increase"}, {"measurement": "glycerol uptake", "setting": "perfused rat heart [3]; low glycerol concentration (0.33 mM), increase in rate 350 to 450 beats/min", "result": "not significantly modified"}, {"measurement": "synthesis of glycerolipids", "setting": "perfused rat heart [4]; high glycerol concentration (3.33 mM)", "result": "involved in the synthesis of both membrane phospholipids and storage triacylglycerols"}, {"measurement": "synthesis of glycerolipids", "setting": "perfused rat heart [4]; low glycerol concentration (0.33 mM)", "result": "does not influence"}, {"measurement": "FA β-oxidation ([3H]2O from palmitate)", "setting": "perfused rat heart [5]", "result": "reduced"}, {"measurement": "glycerol oxidation ([14C]O2)", "setting": "perfused rat heart [5]", "result": "increased"}, {"measurement": "PL concentration", "setting": "[1]; [6]", "result": "increased progressively"}, {"measurement": "triacylglycerol concentration", "setting": "[1]; [6]", "result": "only increased at higher glycerol concentrations"}, {"measurement": "glycerol uptake", "setting": "[1]; extracellular glycerol concentration from 80 μM to 660 μM", "result": "increases"}]}
